Reference: patent US12570612B2, “Substituted nitrogen heterocyclic compound and anesthetic effect thereof” (priority 2019, dated 2026)
Read-outs that look alike come from different tables or passages of the source.

Assays:
Format in all cases: in vivo
[1] = tested on: Sprague-Dawley rats; assay: animal or person; conditions: rats; for ED50: LORR, up and down method, tail vein, class symbols
From the text: Evaluating indicator: The end point of anesthesia: LORR was used as the end point of anesthesia; General anesthesia effect: the disappearance of forepaw righting reflex in rats lasting for 30 seconds is taken as the index of general anesthesia effect; Anesthesia recovery index: the recovery of rat forepaw righting reflex was used as the index of anesthesia recovery.

[2] = tested on: Sprague-Dawley rats; assay: Pharmacological effect and adverse reactions under the equivalent dose (2ED50), Group C compounds; conditions: for Righting reflex duration / Sedation duration / Onset time: 2ED50, tail vein, rats, n=8; for Adverse reaction: Convulsions / Adverse reaction: Cough, broken-winded / Adverse reaction: Euphoria / Adverse reaction: Red urine / Adverse reaction: Slower breathing, Tetany convulsion / Adverse reaction: Systemic stiffness, Convulsions, Opisthotonus / Adverse reaction: Tongue stretching / Adverse reaction: Tremor / Adverse reaction: the four limbs rigidity: equivalent dose (2ED50), number of rats of n = 8
From the text: Evaluation index: onset time: from the completion of drug injection to the disappearance of forepaw righting reflex in rats; Duration of anesthesia: the time from the disappearance of rat forepaw righting reflex to the recovery of rat forepaw righting reflex; Recovery time of anesthesia: the time from the […] to complete recovery;

[3] = tested on: Sprague-Dawley rats; conditions: tail vein
[4] = Rattus norvegicus, read-out: ED50

Compound | ED50 [1, 4] | Approximate therapeutic index [1] | Righting reflex duration [2] | Sedation duration [2] | Onset time ([2]; unit s) | Adverse reaction: Convulsions [2] | Adverse reaction: Cough, broken-winded [2] | Adverse reaction: Euphoria [2] | Adverse reaction: Red urine [2] | Adverse reaction: Slower breathing, Tetany convulsion [2] | Adverse reaction: Systemic stiffness, Convulsions, Opisthotonus [2] | Adverse reaction: Tongue stretching [2] | Adverse reaction: Tremor [2] | Adverse reaction: the four limbs rigidity [2] | Minimal lethal dose [3] | ED50 [1] | Onset time ([2]; unit min)
CCSCC(=O)c1ccnn1[C@H](C)c1ccccc1 [Compound C9, (R)-2-(ethylthio)-1-(1-(1-phenylethyl)-1H-pyrazol-5-yl)ethan-1-one] | 2 to 10 mg/kg | >2.1 | 1.56 ± 0.89 min | 6.62 ± 0.72 min | <30 s | 0 | 0 | 0 | 8 | 0 | 0 | 0 | 0 | 0 | >10.2 mg/kg | – | –
CC#CCOCC(=O)c1cc(F)nn1[C@H](C)c1ccccc1 [Compound C14] | – | >6.0 | 1.38 ± 0.47 min | 9.03 ± 1.58 min | – | 0 | 0 | 1 | 8 | 0 | 0 | 0 | 1 | 0 | >14.5 mg/kg | ++++ (++++ indicates that the measured ED50 is in the range of 2.00-10.00 mg/kg (excluding 2.00 mg/kg, including 6.00 mg/kg)) | <60 s
CC(=O)COCC(=O)c1cc(F)nn1[C@H](C)c1ccccc1 [Compound C16] | 2 to 10 mg/kg | – | 2.26 ± 0.81 min | 4.89 ± 0.98 min | <30 s | 0 | 0 | 0 | 8 | 0 | 0 | 1 | 2 | 4 | >17.0 mg/kg | – | –
C[C@H](c1ccccc1)n1cncc1C(=O)COC1CCC1 [Compound C28] | – | >2.4 | 1.91 ± 0.65 min | 5.63 ± 0.62 min | <30 s | 0 | 0 | 0 | 8 | 0 | 0 | 0 | 1 | 0 | >11.8 mg/kg | – | –
COCC(=O)c1cncn1[C@H](C)c1ccccc1 [Compound C33] | – | >2.8 | 1.62 ± 0.85 min | 4.43 ± 0.92 min | <30 s | 0 | 0 | 0 | 8 | 0 | 0 | 0 | 1 | 0 | >14.2 mg/kg | – | –
C#CCOCC(=O)c1cncn1[C@H](C)c1ccccc1 [Compound C35] | 0.5 to 1 mg/kg | >12.9 | 2.26 ± 0.81 min | 4.89 ± 0.98 min | <30 s | 0 | 0 | 0 | 8 | 0 | 7 | 1 | 0 | 0 | >10.3 mg/kg | – | –
CCC(CC)OCC(=O)c1cncn1[C@H](C)c1ccccc1 [Compound C36] | 2 to 10 mg/kg | >3.0 | 4.02 ± 1.09 min | 15.57 ± 4.94 min | <30 s | 0 | 0 | 0 | 8 | 0 | 0 | 0 | 0 | 3 | >15.2 mg/kg | – | –
C[C@H](c1ccccc1)n1cncc1C(=O)COC(C)(C)C [Compound C45] | – | >2.2 | 3.00 ± 1.02 min | 7.74 ± 0.85 min | <30 s | 0 | 0 | 0 | 8 | 0 | 7 | 0 | 0 | 1 | >10.8 mg/kg | – | –
C[C@H](c1ccccc1)n1cncc1C(=O)COCC1CC1 [Compound C46] | 2 to 10 mg/kg | >2.4 | 1.82 ± 0.64 min | 5.63 ± 1.52 min | <30 s | 0 | 0 | 0 | 8 | 0 | 0 | 1 | 1 | 0 | >11.8 mg/kg | – | –
CC(=O)COCC(=O)c1cncn1[C@H](C)c1ccccc1 [Compound C51] | 1 to 2 mg/kg | >8.3 | 2.89 ± 0.68 min | 4.62 ± 1.02 min | <30 s | 0 | 0 | 0 | 8 | 0 | 0 | 0 | 2 | 0 | >12.5 mg/kg | – | –
C/C=C\C(=O)c1cncn1[C@H](C)c1ccccc1 [Compound C55] | 2 to 10 mg/kg | >16.6 | 1.83 ± 0.30 min | 6.26 ± 2.45 min | <30 s | 0 | 0 | 0 | 8 | 0 | 7 | 0 | 0 | 0 | >13.61 mg/kg | – | –
CC1OC1C(=O)c1cncn1[C@H](C)c1ccccc1 (some centres unmarked) [Compound C56] | 2 to 10 mg/kg | >16.6 | 1.49 ± 0.62 min | 5.32 ± 1.21 min | – | 0 | 0 | 0 | 8 | 0 | 0 | 1 | 1 | 0 | >13.61 mg/kg | – | <60 s
CC#CCC(=O)c1cncn1[C@H](C)c1ccccc1 [Compound C57] | 2 to 10 mg/kg | >16.6 | 1.89 ± 0.29 min | 6.12 ± 1.14 min | – | 0 | 0 | 0 | 8 | 0 | 0 | 2 | 1 | 0 | >13.61 mg/kg | – | <60 s
CC#CCOCC(=O)c1c(F)ncn1[C@H](C)c1ccccc1 [Compound C69] | 0.04 to 0.5 mg/kg | >19.2 | 1.91 ± 0.68 min | 6.28 ± 1.62 min | <30 s | 0 | 0 | 0 | 8 | 0 | 1 | 0 | 0 | 0 | >4.2 mg/kg | – | –
